Assay results from US8741894B2, “Arylsulfonamide CCR3 antagonists” (Axikin Pharmaceuticals, Inc., priority 2010, dated 2014).

Assays:
CCR3 receptor = target: T1, CCR3 receptor (UniProt P51677); test: CCR3 Receptor Binding Assay ([125I]-labeled human eotaxin/CCL11 displacement on cells); settings: 0.1 nM [125I]-labeled human eotaxin/CCL11, 60 min at room temperature
T1 sequence (P51677 1-355): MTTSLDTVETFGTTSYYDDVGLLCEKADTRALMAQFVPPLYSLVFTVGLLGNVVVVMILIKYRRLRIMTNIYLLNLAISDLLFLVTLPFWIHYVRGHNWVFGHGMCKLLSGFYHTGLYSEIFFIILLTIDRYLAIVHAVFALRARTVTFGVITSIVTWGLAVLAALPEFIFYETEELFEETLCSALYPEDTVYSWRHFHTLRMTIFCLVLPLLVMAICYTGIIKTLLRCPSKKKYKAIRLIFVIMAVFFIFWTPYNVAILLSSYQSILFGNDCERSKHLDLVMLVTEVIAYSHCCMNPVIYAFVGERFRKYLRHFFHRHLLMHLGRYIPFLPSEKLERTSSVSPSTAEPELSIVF
Experimental: Cells were washed once with PBS and resuspended in a binding buffer (25 mM HEPES pH 7.6, 5 mM MgCl2, 1 mM CaCl2, 0.5% BSA, 0.1% NaN3). […] of cell suspension (2×10^5 cells/well) and 0.1 nM [^125I]-labeled human eotaxin/CCL11 (2000 Ci/mmol specific activity) were mixed in a 96-well U-bottom polypropylene plate, and incubated for 60 min at room temperature for the binding reaction. The cell suspension was then transferred to a filtration plate (#MAFB, Millipore), and washed 3 times with the binding buffer containing 0.5 M NaCl, scintillant added, and the radioactivity was counted on a TopCount (Packard). For the determination of non-specific binding, the cell suspension and [^125I]-labeled human eotaxin/CCL11 were incubated in the presence of 500 nM of unlabeled human eotaxin/CCL11. See, lino et al., “Molecular cloning and functional characterization of cynomolgus monkey (Macaca fascicularis) CC chemokine receptor, CCR3,” Cytokine 2002, 19, 276-286.
The biological results are summarized in Table 1, wherein A represents a value no greater than 50 nM, and B represents a value greater than 50 nM but no greater than 500 nM, C represents a value greater than 500 nM but no greater than 5 μM; and D represents a value greater than 5 μM.

hERG channel = target: T2, hERG channel (Homo sapiens, UniProt Q12809); test: hERG Receptor Binding Assay (125I-BeKm-1, membranes from HEK-293 cells containing transfected hERG channels); settings: 1 hr at room temperature; for Ki at 1 h: human, pH 7.2, probe 125I-BeKm-1 (0.1 nM final); for Ki: 125I-BeKm-1 0.1 nM final
T2 construct: purchased Perkin Elmer RBHERGM400UA; host or cells: HEK-293 cells transfected with hERG (membrane preparation)
T2 sequence (Q12809 whole entry): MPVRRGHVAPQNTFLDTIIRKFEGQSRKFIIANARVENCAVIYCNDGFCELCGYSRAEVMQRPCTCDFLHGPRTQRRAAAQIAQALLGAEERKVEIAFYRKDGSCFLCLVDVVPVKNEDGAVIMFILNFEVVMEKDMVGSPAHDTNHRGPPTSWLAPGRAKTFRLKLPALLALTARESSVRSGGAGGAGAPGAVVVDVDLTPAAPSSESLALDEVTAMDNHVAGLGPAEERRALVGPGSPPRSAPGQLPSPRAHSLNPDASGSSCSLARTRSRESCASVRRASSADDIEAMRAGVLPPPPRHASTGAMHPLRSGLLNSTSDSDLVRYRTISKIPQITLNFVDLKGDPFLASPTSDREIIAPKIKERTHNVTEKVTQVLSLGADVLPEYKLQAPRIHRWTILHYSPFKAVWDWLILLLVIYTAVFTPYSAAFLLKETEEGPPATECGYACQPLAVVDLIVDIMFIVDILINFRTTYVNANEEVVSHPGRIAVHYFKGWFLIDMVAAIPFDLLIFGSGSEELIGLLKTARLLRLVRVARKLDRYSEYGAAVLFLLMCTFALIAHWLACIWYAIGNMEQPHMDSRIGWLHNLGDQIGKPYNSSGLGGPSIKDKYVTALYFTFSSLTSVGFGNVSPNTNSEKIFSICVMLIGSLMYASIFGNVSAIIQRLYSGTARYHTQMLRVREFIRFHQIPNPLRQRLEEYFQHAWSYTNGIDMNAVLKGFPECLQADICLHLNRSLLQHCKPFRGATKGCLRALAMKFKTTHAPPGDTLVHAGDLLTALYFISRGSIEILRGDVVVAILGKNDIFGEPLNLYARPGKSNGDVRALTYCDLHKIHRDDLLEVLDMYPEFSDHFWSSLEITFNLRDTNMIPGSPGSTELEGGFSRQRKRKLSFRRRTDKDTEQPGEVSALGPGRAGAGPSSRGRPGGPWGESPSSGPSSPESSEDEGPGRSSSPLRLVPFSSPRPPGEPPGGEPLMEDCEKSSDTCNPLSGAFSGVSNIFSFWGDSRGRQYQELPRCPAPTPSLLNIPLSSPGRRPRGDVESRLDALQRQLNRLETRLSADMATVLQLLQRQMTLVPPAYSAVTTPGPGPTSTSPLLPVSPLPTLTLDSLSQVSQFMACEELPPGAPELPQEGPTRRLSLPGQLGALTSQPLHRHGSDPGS
Experimental: Medium throughput screening of compounds for interaction with the human Ether-a-go-go related gene (hERG) was performed by modification of equilibrium dissociation assays using 125I-labelled peptide BeKm-1. BeKm-1, a scorpion toxin from the Central Asian scorpion Buthus eupeus, selectively blocks the hERG channel. Angelo, K., et al., 2003, Pflugers Arch.-Eur. J. Physiol., 447: 55-63; Chiu, P J S, et al., J. Pharmacol. Sci., 2004, 95: 311-319. Isolated membrane preparations from HEK-293 cells containing transfected hERG channels (hERG K+ Channel Membrane Target Systems™; Cat #, RBHERGM400UA) (Perkin Elmer, Boston, Mass.) were suspended in assay buffer A at a final concentration of 1:150 v/v. Compounds for screening, and non-radiolabelled BeKm-1, as well as 125I-BeKm-1 radioligand (Perkin Elmer; Cat #, NEX-412; Specific Activity 2,200 Ci/mmol), were also reconstituted in Buffer A. Assay components were incubated in 96-well, round-bottom polypropylene plates in the following ratio:
25 μl compound at appropriate concentrations
25 μl radiolabelled BeKm-1 at 0.8 nM (final concentration of 0.1 nM)
150 μl membrane preparation
The assay was incubated with shaking for 1 hr at room temperature. Subsequently, the well contents were transferred to 96-well filtration plates (GF/C multiwell plates (MultiScreen™ HTS; Millipore, 290 Concord Road, Billerica, Mass. 01821 USA; Cat# MSFBN6B-XX pre-soaked in 0.3% polyethyleneimine; Acros Organics, NJ; Cat#178571000). Unbound radioactivity was removed and the membranes washed 4 times with ice-cold Buffer B, under vacuum. Plates were air-dried and bound radioactivity counted on a Packard Top-Count NXT™ microplate scintillation and luminescence counter (Packard Instrument Co., Downers Grove, Ill.). Equilibrium dissociation was analyzed and IC50 and/or Ki values were calculated using GraphPad Prism 4™ software (GraphPad Software, San Diego, Calif.).
Assay Buffer A: ([…] (MP Biomedicals, LLC; 29525 Fountain Parkway, Solon Ohio, 441389; Cat #1688449) in water, pH 7.2 with 1M Tris (Fisher Chemicals, Fair Lawn, N.J. 07410; Cat #, BP-1757-500); 100 μM KCl (Fisher Chemicals, Cat #, BP-366-500); 0.1% BSA (Sigma Aldrich, 3050 Spruce Street, St. Louis, Mo. 63103; Cat #, A3059). Assay Buffer B: 20 mM Tris HCl, pH 7.3; 150 mM NaCl (Fisher Chemicals; Cat #, S78449).
The hERG binding assay results are summarized in Table 2, wherein A represents no measured activity (i.e., a value greater than 100 μM), and B represents a value greater than 10 μM but less than 100 μM and C represents a value less than 10 μM.

SMILES | Ki (CCR3 receptor) [nM] | Ki at 1 h (hERG channel) [µM] | Ki (hERG channel) [µM]
CS(=O)(=O)N1CCC(NS(=O)(=O)c2cc(C#N)ccc2Oc2cc(Cl)cc(Cl)c2)CC1 [Compound 33] | 50 to 500 | > 100 | –
N#Cc1ccc(Oc2cc(Cl)cc(Cl)c2)c(S(=O)(=O)N2CCC(NC(=O)Nc3cccc(F)c3)CC2)c1 [Compound 52] | 500 to 5000 | > 100 | –
Cc1ccc(S(=O)(=O)N2CCC(NS(=O)(=O)c3cc(C#N)ccc3Oc3cc(Cl)cc(Cl)c3)CC2)cc1 [Compound 30, 5-cyano-2-(3,5-dichlorophenoxy)-N-(1-tosylpiperidin-4-yl)benzenesulfonamide] | 50 to 500 | – | > 100
CC(C)NC(=S)N1CCC(NS(=O)(=O)c2cc(C#N)ccc2Oc2cc(Cl)cc(Cl)c2)CC1 [Compound 36] | 50 to 500 | 10 to 100 | –
CC(C)(C)OC(=O)N1CCC(NS(=O)(=O)c2cc(C#N)ccc2Oc2cc(Cl)cc(Cl)c2)CC1 [Compound 2] | > 5000 | > 100 | –
N#Cc1ccc(Oc2cc(Cl)cc(Cl)c2)c(S(=O)(=O)N2CCC(NS(=O)(=O)c3cccc(F)c3)CC2)c1 [Compound 25, N-(1-(5-cyano-2-(3,5-dichlorophenoxy)phenylsulfonyl)piperidin-4-yl)-3-fluorobenzenesulfonamide] | 50 to 500 | – | > 100
CC(=O)N1CCC(NS(=O)(=O)c2cc(C#N)ccc2Oc2cc(Cl)cc(Cl)c2)CC1 [Compound 38] | 50 to 500 | > 100 | –
